Experimental data taken from PubChem BioAssay (NCI).
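Five concentrations, 48 hours, 96-well plates. GI50: concentration for 50% inhibition of growth. Definition used: TGI = concentration required for complete inhibition of growth.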

How the values were obtained:
Test in all cases: growth of human tumour cells (NCI), 48 h
[1] = system: HOP-92 NSCLC
[2] = system: PC-3 prostate
[3] = system: IGROV1 ovarian
[4] = system: BT-549 breast
[5] = system: UO-31 renal
[6] = system: SF-295 CNS
[7] = system: RXF 393 renal
[8] = system: CCRF-CEM leukemia
[9] = system: HL-60(TB) leukemia
[10] = system: NCI-H522 lung
[11] = system: A498 renal
[12] = system: CAKI-1 renal
[13] = system: SF-268 CNS
[14] = system: K-562 leukemia
[15] = system: MOLT-4 leukemia
[16] = system: NCI-H226 lung
[17] = system: M14 melanoma
[18] = system: OVCAR-8 ovarian
[19] = system: HCT-116 colon
[20] = system: SK-MEL-5 melanoma
[21] = system: LOX IMVI melanoma
[22] = system: OVCAR-3 ovarian
[23] = system: SNB-75 CNS
[24] = system: MALME-3M melanoma
[25] = system: HT29 colon
[26] = system: TK-10 renal
[27] = system: SNB-19 CNS
[28] = system: OVCAR-4 ovarian
[29] = system: RPMI-8226 leukemia
[30] = system: MDA-MB-435
[31] = system: COLO 205 colon
[32] = system: EKVX NSCLC
[33] = system: 786-0 renal
[34] = system: NCI/ADR-RES ovarian
[35] = system: OVCAR-5 ovarian
[36] = system: SN12C renal
[37] = system: HCT-15 colon
[38] = system: KM12 colon
[39] = system: T-47D breast
[40] = system: HOP-62 NSCLC
[41] = system: SK-MEL-28 melanoma
[42] = system: SR leukemia
[43] = system: NCI-H460 lung
[44] = system: MCF7 breast
[45] = system: NCI-H23 lung
[46] = system: SK-MEL-2 melanoma
[47] = system: MDA-MB-231 breast
[48] = system: MDA-MB-468 breast
[49] = system: UACC-257 melanoma
[50] = system: A549 NSCLC
[51] = system: ACHN renal
[52] = system: SW-620 colon
[53] = system: SF-539 CNS
[54] = system: UACC-62 melanoma
[55] = system: DU-145 prostate
[56] = system: SK-OV-3 ovarian
[57] = system: HS 578T breast
[58] = system: HCC-2998 colon
[59] = system: U251 CNS

O=c1[nH]c2ccccc2cc1CSc1ccc(Nc2nccc(-c3ccc(Cl)cc3)n2)cc1
GI50 [1]: 1.11 µM | TGI [1]: 2.8 µM | GI50 [2]: 1.83 µM | TGI [2]: 6.28 µM | GI50 [3]: 3.71 µM | TGI [3]: 14.3 µM | GI50 [4]: 2.16 µM | TGI [4]: 6.98 µM | GI50 [5]: 1.83 µM | TGI [5]: 4.03 µM | GI50 [6]: 0.776 µM | TGI [6]: 2.14 µM | GI50 [7]: 1.7 µM | TGI [7]: 4.42 µM | GI50 [8]: 2.93 µM | TGI [8]: 23.2 µM | GI50 [9]: 43.2 µM | TGI [9]: > 100 µM | GI50 [10]: 2.17 µM | TGI [10]: 6.79 µM | GI50 [11]: 1.23 µM | TGI [11]: 2.6 µM | GI50 [12]: 1.17 µM | TGI [12]: 2.73 µM | GI50 [13]: 1.07 µM | TGI [13]: 4.97 µM | GI50 [14]: 2.57 µM | TGI [14]: 18.3 µM | GI50 [15]: 3.78 µM | TGI [15]: 56.9 µM | GI50 [16]: 1.3 µM | TGI [16]: 2.88 µM | GI50 [17]: 4.9 µM | TGI [17]: 30.9 µM | GI50 [18]: 1.6 µM | TGI [18]: 3.5 µM | GI50 [19]: 0.644 µM | TGI [19]: 3.65 µM | GI50 [20]: 2.49 µM | TGI [20]: 9.56 µM | GI50 [21]: 1.83 µM | TGI [21]: 5.24 µM | GI50 [22]: 0.945 µM | TGI [22]: 2.46 µM | GI50 [23]: 0.245 µM | TGI [23]: 1.42 µM | GI50 [24]: 1.81 µM | TGI [24]: 6.09 µM | GI50 [25]: 0.917 µM | TGI [25]: 5.52 µM | GI50 [26]: 1.65 µM | TGI [26]: 3.34 µM | GI50 [27]: 1.18 µM | TGI [27]: 2.58 µM | GI50 [28]: 0.334 µM | TGI [28]: 1.26 µM | GI50 [29]: 2.41 µM | TGI [29]: 21.5 µM | GI50 [30]: 2.75 µM | TGI [30]: 13.1 µM | GI50 [31]: 2.64 µM | TGI [31]: 25 µM | GI50 [32]: 1.42 µM | TGI [32]: 4.77 µM | GI50 [33]: 1.16 µM | TGI [33]: 2.55 µM | GI50 [34]: 1.13 µM | TGI [34]: 3.32 µM | GI50 [35]: 2.47 µM | TGI [35]: 11.2 µM | GI50 [36]: 1.99 µM | TGI [36]: 4.47 µM | GI50 [37]: 1.02 µM | TGI [37]: 15.2 µM | GI50 [38]: 11 µM | TGI [38]: > 100 µM | GI50 [39]: 2.24 µM | TGI [39]: 8.07 µM | GI50 [40]: 1.72 µM | TGI [40]: 3.45 µM | GI50 [41]: 4.45 µM | TGI [41]: 23.6 µM | GI50 [42]: 6.37 µM | TGI [42]: 29.7 µM | GI50 [43]: 0.383 µM | TGI [43]: 1.42 µM | GI50 [44]: 2.59 µM | TGI [44]: 15.9 µM | GI50 [45]: 1.66 µM | TGI [45]: 4.85 µM | GI50 [46]: 12.9 µM | TGI [46]: 26.2 µM | GI50 [47]: 1.26 µM | TGI [47]: 3.04 µM | GI50 [48]: 1.15 µM | TGI [48]: 3.14 µM | GI50 [49]: 13.3 µM | TGI [49]: 79.5 µM | GI50 [50]: 1.46 µM | TGI [50]: 3.5 µM | GI50 [51]: 0.744 µM | TGI [51]: 2.18 µM | GI50 [52]: 1.54 µM | TGI [52]: 13.4 µM | GI50 [53]: 1.66 µM | TGI [53]: 3.4 µM | GI50 [54]: 3.92 µM | TGI [54]: 15.2 µM | GI50 [55]: 1.52 µM | TGI [55]: 9.16 µM | GI50 [56]: 2.26 µM | TGI [56]: 5.49 µM | GI50 [57]: 0.621 µM | TGI [57]: 3.45 µM | GI50 [58]: 4.05 µM | TGI [58]: 25.3 µM | GI50 [59]: 0.368 µM | TGI [59]: 1.44 µM
